According to patent US10711001B2, “Macrocylic ligands with picolinate group(s), complexes thereof and also medical uses thereof” (GUERBET, priority 2015, dated 2020):
Where two headings read alike, the source gives them in different places. Marks after values point to notes of the source that are not given here.

How the values were obtained:
[1] = Relaxivity of the gadolinium complexes; type: physicochemical; details: gadolinium complex of the ligand, water, 37° C.
Experimental: The relaxivity studies were performed on the gadolinium complexes of the ligands P04218, P04216 and P04213, on Minispec Mq-20 and Minispec Mq-60 machines (Brüker, Karlsruhe, Germany) at 20 MHz (0.47 T) and 60 MHz (1.4 T) in water at 37° C.
For each complex prepared previously, a [Gd] concentration range extending from 0.5 to 5 mM was prepared and the values T1 and T2 of each of these solutions were then measured to determine the relaxivity values r1 and r2 by means of equation 1. For each of the ligands, a trend curve whose correlation coefficient was equal to or very close to 1 was obtained, which made it possible to check equation 1 and to validate the quality of the measurements taken. The curves plotted make it possible to determine the relaxivity value “r” which corresponds to coefficient “a” of the equation for the straight line “ax+b”.

[2] = Protonation constants of the ligands by potentiometry; type: physicochemical; details: I = 0.1 KNO3, 25° C.
Experimental: (§1) The experiments were performed under an inert atmosphere in aqueous solutions thermostatically maintained at 25.0±0.1° C. The protonation and complexation titrations were performed in a jacketed glass titrations cell using a Metrohm 702 SM Titrino automatic burette connected to a Metrohm 6.0233.100 combined glass electrode. The titrations were controlled automatically by software after selection of the appropriate parameters avoiding monitoring during long measurements.
The titrant is an approximately 0.1 M KOH solution prepared from an analytical-grade commercial vial and its exact concentration is obtained by applying the Gran method by titrating with a standard HNO3 solution.
(§2) The ligand solutions were prepared at approximately 2.0×10^−3 M and the Cu^2+, Pb^2+ and y^3+ solutions at approximately 0.04 M from analytical-grade chloride salts and standardized by complexometric titration with H4edta (ethylenediaminetetraacetic acid)^1. The solution to be titrated contains approximately 0.05 mmol of ligand in a volume of 30.00 mL, the ionic strength of which was maintained at 0.10 M using KNO3 as electrolyte. 1.2 equivalents of metal cation (Cu^2+ or Pb^2+) were added to the ligand (0.05 mmol) during the standardization titrations of the ligand solution.
The electromotive force of the solution was measured after calibration of the electrode by titration of a standard […] HNO3 solution. The [H^+] of the solutions was determined by measuring the electromotive force of the cell, E=E^o′+Q log [H^+]+Ej. The term “pH” is defined by −log[H^+]. E^o′ and Q are determined by the acidic region of the calibration curves. The liquid junction potential, Ej, is negligible under the experimental conditions used. The value of Ke=[H^+][OH^−] is 10^−13.78.
(§3) The potentiometric data were refined with the Hyperquad software^2 and the speciation diagrams were plotted using the HySS software^3.
(§4) The overall equilibrium constants βiH and βMmHhLl are defined by βMmHhLl=[MmHhLl]/[M]m[H]h[L]l, (βiH=[HhLl]/[H]h[L]l and βMH−1L=βML(OH)×Ke). The differences, in log units, between the protonation (or hydrolysis) values and the non-protonation constants give the intermediate reaction constants (log K) (with KMmHhLl=[MmHhLl]/[MmHh-1Ll][H]). The errors indicated are the standard deviations calculated by the adjustment program from all of the experimental data for each system.
Four protonation constants were determined for the ligands Pc1a2pa sym P04213, Pc1a2pa asym P04214, Pc2a1pa sym P04216 and Pc3pa P04221. These values are coherent with those determined for PCTMB (phosphonic acid, P,P′,P″-[3,6,9,15-tetraazabicyclo[9.3.1]pentadeca-1(15),11,13-triene-3,6,9-triyltris(methylene)]tris-, P,P′,P″-tributyl ester) and also with those described in the literature especially for PCTA (3,6,9,15-tetraazabicyclo[9.3.1]pentadeca-1(15),11,13-triene-3,6,9-triacetic acid), EDTA (ethylenediaminetetraacetic acid) and DOTA (1,4,7,10-tetraazacyclododecane-1,4,7,10-tetraacetic acid).

[3] = Y^3+, cited from earlier work
[4] = pM = −log[M] calculated from protonation and stability constants; type: physicochemical; details: calculated from the constants with CL = 10 × CM = 10^−5 M at pH 7.4
Excerpt: The constant pM=-log[M] is used for this purpose. […] The ligand […]04214 has a p(Y) of 17.3, which is higher than that of PCTA (p(Y)=17.0), of […])=16.8) and of […])=16.9).

[5] = cited from earlier work
[6] = Stability constants of the yttrium complexes by potentiometry; type: physicochemical; details: Y^3+
Experimental: as §1, §2
0.9 equivalent of metal cation (Y^3+) was added to the ligand during the complexation titration methods.
as §3, §4
The thermodynamic protonation and stability constants of the complexes were determined by potentiometry at 25° C. with control of the ionic strength (I=0.1 M KNO3). Refinement of the titration curves with the HyperQuad software makes it possible to determine the overall constants (log β), from which the partial constants (log K) are calculated.
The stability constants of the ligands Pc1a2pa sym P04213, Pc1a2pa asym P04214 et Pc2a1pa sym P04218 and P04221 with yttrium were determined by direct potentiometric titration. The log KYL constant values for the ligands Pc1a2pa sym, Pc1a2pa asym and Pc2a1pa sym are, respectively, 19.78, 19.49 and 19.28, and the log KYLH^−1 constant values are 11.84, 11.79 and 10.60.

[7] = Complexation kinetics of the ligands with yttrium by UV-visible spectroscopy; type: physicochemical
Experimental: The formation of the yttrium(III) complexes of […] were studied in an aqueous solution of acetate buffer (C=0.150 M) at 25° C. under pseudo-first-order conditions.
The complexation kinetics of the ligands Pc1a2pa sym P04213, Pc1a2pa asym P04214 and Pc2a1pa sym P04218 with yttrium were studied at pH 3.8 and pH 5.5 in acetate buffer medium by UV-visible spectroscopy. Placed at the absorption maximum of the complex, the increase in absorbance intensity is measured every two seconds until the maximum absorbance is reached. The decrease in intensity of the absorbance at the absorbance maximum of the ligand is monitored when the absorption band of the complex is masked by that of the ligand. For this study, the concentration of the ligands Pc1a2pa sym and Pc1a2pa asym is 4×10^−5 M and 8×10^−5 M for the ligand Pc2a1pa sym. At pH 5.5 and 3.8, the ligand Pc1a2pa sym has the fastest complexation kinetics, with total complexation in 30 and 400 seconds, respectively. For the ligands Pc1a2pa asym and Pc2a1pa sym, the complexation is complete in 1100 seconds at pH 3.8 and 100 seconds at pH 5.5.

[8] = determined by competition with EDTA, 0.1M KNO3
[9] = direct potentiometric titration, 25° C., I=0.1 M KNO3

## O=C(O)CN1CCN(CC(=O)O)Cc2cccc(n2)CN(Cc2cccc(C(=O)O)n2)CC1 [Ligand P04216]
[1]; 20 MHz (0.47 T)
  Relaxivity r1: r1 = 3.7 mmol^−1s^−1
[1]; 60 MHz (1.4 T)
  Relaxivity r1: r1 = 3.2 mmol^−1s^−1

## O=C(O)c1cccc(CN2CCN(Cc3cccc(C(=O)O)n3)Cc3cccc(n3)CN(Cc3cccc(C(=O)O)n3)CC2)n1 [Ligand P04221]
[2]
  log Ki^H [H2L]/[HL][H]: 5.95
  log Ki^H [H3L]/[H2L][H]: 3.82
  log Ki^H [H4L]/[H3L][H]: 2.98
  log Ki^H [HL]/[L][H]: 10.03

## O=C(O)CN(CCN(CC(=O)O)CC(=O)O)CC(=O)O [EDTA, ethylenediaminetetraacetic acid]
[3]; Ref 5, 0.1M NMe4Cl
  log KMHiL [ML]/[M][L]: 18.5 ^d
[4]
  pY (pM = −log[M]): 16.6
[5]; I = 0.1 KNO3
  log Ki^H [H2L]/[HL][H]: 6.16
  log Ki^H [H3L]/[H2L][H]: 2.71
  log Ki^H [H4L]/[H3L][H]: 2.0
  log Ki^H [HL]/[L][H]: 10.22

## CCCCOP(=O)(O)CN1CCN(CP(=O)(O)OCCCC)Cc2cccc(n2)CN(CP(=O)(O)OCCCC)CC1 [PCTMB, phosphonic acid, P,P′,P″-[3,6,9,15-tetraazabicyclo[9.3.1]pentadeca-1(15),11,13-triene-3,6,9-triyltris(methylene)]tris-, P,P′,P″-tributyl ester, reference compound]
[2]
  log Ki^H [H2L]/[HL][H]: 5.28
  log Ki^H [H3L]/[H2L][H]: 1.72
  log Ki^H [HL]/[L][H]: 11.16
[4]
  pY (pM = −log[M]): 16.7
[6]; [8]
  log KMHiL [MHL]/[ML][H]: 3.45
  log KMHiL [ML]/[MLOH][H]: 9.10
  log KMHiL [ML]/[M][L]: 19.49

## O=C(O)CN1CCN(CC(=O)O)Cc2cccc(n2)CN(CC(=O)O)CC1 [PCTA, 3,6,9,15-tetraazabicyclo[9.3.1]pentadeca-1(15),11,13-triene-3,6,9-triacetic acid]
[3]; Ref 3, 1.0M KCl
  log KMHiL [MHL]/[ML][H]: 1.81
  log KMHiL [ML]/[MLOH][H]: 11.10
  log KMHiL [ML]/[M][L]: 20.28
[4]
  pY (pM = −log[M]): 17.0
[5]; I = 1.0 KCl
  log Ki^H [H2L]/[HL][H]: 7.35
  log Ki^H [H3L]/[H2L][H]: 3.83
  log Ki^H [H4L]/[H3L][H]: 2.12
  log Ki^H [H5L]/[H4L][H]: 1.29
  log Ki^H [HL]/[L][H]: 11.36

## O=C(O)CN1CCN(CC(=O)O)CCN(CC(=O)O)CCN(CC(=O)O)CC1 [DOTA, 1,4,7,10-tetraazacyclododecane-1,4,7,10-tetraacetic acid]
[3]; Ref 7, 0.1M NMe4NO3
  log KMHiL [ML]/[M][L]: 24.9 ^h
[4]
  pY (pM = −log[M]): 18.8
[5]; I = 0.1 Me4NNO3
  log Ki^H [H2L]/[HL][H]: 9.76
  log Ki^H [H3L]/[H2L][H]: 4.56
  log Ki^H [H4L]/[H3L][H]: 4.09

## O=C([O-])c1cccc(CN2CCN(Cc3cccc(C(=O)[O-])n3)Cc3cccc(n3)CN(Cc3cccc(C(=O)[O-])n3)CC2)n1.[Y+3] [Ligand P04222]
[4]
  pY (pM = −log[M]): 14.7
[6]; [9]
  log KMHiL [MHL]/[ML][H]: 3.11
  log KMHiL [ML]/[MLOH][H] (log KYLH^−1): 11.02
  log KMHiL [ML]/[M][L] (log KYL): 16.42

## O=C(O)CN1CCN(Cc2cccc(C(=O)O)n2)Cc2cccc(n2)CN(Cc2cccc(C(=O)O)n2)CC1 [Ligand P04213]
[2]
  log Ki^H [H2L]/[HL][H]: 5.58
  log Ki^H [H3L]/[H2L][H]: 4.23
  log Ki^H [H4L]/[H3L][H]: 3.01
  log Ki^H [HL]/[L][H]: 11.30
[1]; 20 MHz (0.47 T)
  Relaxivity r1: r1 = 1.9 mmol^−1s^−1
[1]; 60 MHz (1.4 T)
  Relaxivity r1: r1 = 1.6 mmol^−1s^−1
[4]
  pY (pM = −log[M]): 16.8
[6]; [9]
  log KMHiL [ML]/[MLOH][H] (log KYLH^−1): 11.84
  log KMHiL [ML]/[M][L] (log KYL): 19.78
[7]; pH 3.8, acetate buffer
  time to total complexation with yttrium: 400 s
[7]; pH 5.5, acetate buffer
  time to total complexation with yttrium: 30 s

## O=C(O)CN1CCN(Cc2cccc(C(=O)O)n2)CCN(CC(=O)O)Cc2cccc(n2)C1 [Ligand P04218]
[2]
  log Ki^H [H2L]/[HL][H]: 7.38
  log Ki^H [H3L]/[H2L][H]: 3.95
  log Ki^H [H4L]/[H3L][H]: 2.15
  log Ki^H [HL]/[L][H]: 10.43
[1]; 20 MHz (0.47 T)
  Relaxivity r1: r1 = 3.9 mmol^−1s^−1
[1]; 60 MHz (1.4 T)
  Relaxivity r1: r1 = 3.2 mmol^−1s^−1
[4]
  pY (pM = −log[M]): 16.9
[6]; [9]
  log KMHiL [ML]/[MLOH][H] (log KYLH^−1): 10.60
  log KMHiL [ML]/[M][L] (log KYL): 19.28
[7]; pH 3.8, acetate buffer
  time to total complexation with yttrium: 1100 s
[7]; pH 5.5, acetate buffer
  time to total complexation with yttrium: 100 s

## O=C(O)CN1CCN(Cc2cccc(C(=O)O)n2)CCN(Cc2cccc(C(=O)O)n2)Cc2cccc(n2)C1 [Ligand P04214]
[2]
  log Ki^H [H2L]/[HL][H]: 6.73
  log Ki^H [H3L]/[H2L][H]: 3.86
  log Ki^H [H4L]/[H3L][H]: 2.98
  log Ki^H [HL]/[L][H]: 10.50
[4]
  pY (pM = −log[M]): 17.3
[6]; [9]
  log KMHiL [ML]/[MLOH][H] (log KYLH^−1): 11.79
  log KMHiL [ML]/[M][L] (log KYL): 19.49
[7]; pH 3.8, acetate buffer
  time to total complexation with yttrium: 1100 s
[7]; pH 5.5, acetate buffer
  time to total complexation with yttrium: 100 s
